Measurements taken from patent publication US7999119B2, “Compounds having CRTH2 antagonist activity” (Oxagen Limited, priority 2006, dated 2011).
Values joined by “and” are separate entries in the source; they are usually repeats but may differ in a detail not shown here. Equal values may be shown once. Read-outs that look alike come from different tables or passages of the source.

Experiments:
[1] = Pharmacokinetics following oral administration in the rat; type: in vivo
Description: Investigation of Pharmacokinetics of Compounds of General Formula (I) Following Oral Administration in the Rat
Rats were weighed on the day of dosing.
The test material was prepared as a 0.3 mg/mL suspension in 1% carboxy-methyl-cellulose (CMC).
Three groups of 3 rats were dosed as follows:
Doses were administered as a single oral dose using a gavage tube at a constant dose volume of 10 mL/kg.
At each sampling time point blood samples (approximately 0.3 mL) was taken from a catheter inserted into a lateral tail vein prior to the start of the experiment. The final blood sample (approximately 2 mL) from each animal was taken by cardiac puncture under isoflurane anaesthesia following which the animal was killed by exsanguination. Blood samples were taken into individual heparinised containers. Blood samples were collected at the following times post-dose:
Following collection, the blood samples were centrifuged (approximately 10,000×g, 2 min at 4° C.) and the plasma stored as one aliquot at approximately −20° C. pending analysis of drug concentrations by LC-MS/MS.
The plasma samples were analysed for test material concentrations at BioDynamics using an LC-MS/MS method developed at BioDynamics.

[2] = tested on: PGD2 induced eosinophil shape change; experiment: Human whole blood eosinophil shape change assay; type: cell-based; conditions: Homo sapiens, Eosinophil
Description: Human Whole Blood Eosinophil Shape Change Assay
Compounds 1 to 3 were assayed for their effect on PGD2 induced eosinophil shape change and were compared with Comparator Compounds A to G.
Shape Change Assay in Whole Blood
Compounds (1 μl, 200× final concentration) were added directly to 200 μl whole blood, mixed well and incubated for 15 min, 37° C., 5% CO2. After this time, cell shape was fixed by addition of 300 μl Cytofix™ buffer (BD Biosciences), 15 min on ice. 10 ml RBC lysis buffer was added to the fixed cells, incubated 5 min, at room temperature and centrifuged, 300×g for 5 min. Supernatant (containing lysed red cells) was removed and the lysis step was repeated. Leukocytes were resuspended in 250 μl RPMI/10% FCS and shape change analysed by FACS. Eosinophils were gated out based on their autofluorescence and 2000 eosinophil events were counted per sample. Data were analysed in triplicate.

[3] = tested on: DK-PGD2-induced blood eosinophilia; experiment: Inhibition of DK-PGD2-induced blood eosinophilia in rats; type: in vivo, rat; conditions: female rats, oral dosing 30 min before 10 μg DK-PGD2 intracardiac; ED50 from dose-response curve; the values are: ED50
Description: Evaluation of Compounds of General Formula (I) as Inhibitors of 13,14-dihydro-15-keto prostaglandin D2 (DK-PGD2)-Induced Blood Eosinophilia in Rats
The test compound was dissolved in DMSO and diluted with water to give a final dosing volume of 2 ml/kg.
Female rats (175-250 g; UH colony) were dosed orally with test compound (or vehicle).
30 min after dosing all animals were anaesthetised with isoflurane.
Following induction of anaesthesia, animals receive an intracardiac injection of 10 μg DK-PGD2 in 0.3 ml heparinised (10 U/ml) saline. Control animals received an injection of 0.3 ml heparinised saline.
60 min after the intracardiac injection, animals were injected with an overdose of pentobarbitone sodium and a blood sample was taken (into heparin) by cardiac puncture while the rat was anaesthetised but not dead.
An aliquot of blood (100 μl) was added to Turk's solution and the total leukocyte count determined with a haemocytometer.
A further aliquot of blood (500 μl) was mixed with an equal volume of 4% Dextran (mw 500,000) and the erythrocytes allowed to settle. A cytospin preparation was made from the resulting leukocyte rich fraction.
Cytospin preparations were fixed with methanol (5 min) and stained with May-Grunwald (5 min) and Giemsa (15 min) stains. Finally cytospins were washed in phosphate buffer (pH6.8) and air dried.
Differential leukocyte counts were obtained from the cytospin preparations.
Blood eosinophil numbers were determined from the total leukocyte count and the percentage eosinophils (differential count).
Because it was impractical to generate sufficient data in any given experiment, data were obtained over a number of replicate experiments. Data from these replicate experiments were pooled, to provide at least 5 animals in each group and a dose-response curve fitted following a significance test (Mann Whitney) to determine whether or not DK-PGD2 caused a significant increase in blood eosinophils (GraphPad, Prism). A difference between groups was taken to be significant when P<0.05. ED50 values were calculated from the dose-response curve.

[4] = rat, 3 mg/kg p.o, individual male animals, 3 mg/kg

concentration at 0.25 h ([1]; male, rat, plasma, po, 3 mg/kg, rat, 3 mg/kg oral, 0.25 h, individual male animals, read-out: Concentration in Blood): 836 ng/mL | concentration at 0.25 h ([1]; male, rat, plasma, po, 3 mg/kg, rat, 3 mg/kg oral, 0.25 h, mean, read-out: Concentration in Blood, Mean): 1100 ng/mL | concentration at 0.5 h ([1]; male, rat, plasma, po, 3 mg/kg, rat, 3 mg/kg oral, 0.5 h, individual male animals, read-out: Concentration in Blood): 2060 ng/mL | concentration at 0.5 h ([1]; male, rat, plasma, po, 3 mg/kg, rat, 3 mg/kg oral, 0.5 h, mean, read-out: Concentration in Blood, Mean): 2250 ng/mL | concentration at 1 h ([1]; male, rat, plasma, po, 3 mg/kg, rat, 3 mg/kg oral, 1 h, individual male animals, read-out: Concentration in Blood): 2490 ng/mL | concentration at 1 h ([1]; male, rat, plasma, po, 3 mg/kg, rat, 3 mg/kg oral, 1 h, mean, read-out: Concentration in Blood, Mean): 3140 ng/mL | concentration at 2 h ([1]; male, rat, plasma, po, 3 mg/kg, rat, 3 mg/kg oral, 2 h, individual male animals, read-out: Concentration in Blood): 4320 ng/mL | concentration at 2 h ([1]; male, rat, plasma, po, 3 mg/kg, rat, 3 mg/kg oral, 2 h, mean, read-out: Concentration in Blood, Mean): 4080 ng/mL | concentration at 4 h ([1]; male, rat, plasma, po, 3 mg/kg, rat, 3 mg/kg oral, 4 h, individual male animals, read-out: Concentration in Blood): 3130 ng/mL | concentration at 4 h ([1]; male, rat, plasma, po, 3 mg/kg, rat, 3 mg/kg oral, 4 h, mean, read-out: Concentration in Blood, Mean): 2400 ng/mL | concentration at 6 h ([1]; male, rat, plasma, po, 3 mg/kg, rat, 3 mg/kg oral, 6 h, individual male animals, read-out: Concentration in Blood): 1330 ng/mL | concentration at 6 h ([1]; male, rat, plasma, po, 3 mg/kg, rat, 3 mg/kg oral, 6 h, mean, read-out: Concentration in Blood, Mean): 1140 ng/mL | concentration at 8 h ([1]; male, rat, plasma, po, 3 mg/kg, rat, 3 mg/kg oral, 8 h, individual male animals, read-out: Concentration in Blood): 1160 ng/mL | concentration at 8 h ([1]; male, rat, plasma, po, 3 mg/kg, rat, 3 mg/kg oral, 8 h, mean, read-out: Concentration in Blood, Mean): 847 ng/mL | concentration at 12 h ([1]; male, rat, plasma, po, 3 mg/kg, rat, 3 mg/kg oral, 12 h, mean, read-out: Concentration in Blood, Mean): 277 ng/mL | concentration at 24 h ([1]; male, rat, plasma, po, 3 mg/kg, rat, 3 mg/kg oral, 24 h, mean, read-out: Concentration in Blood, Mean): 16.1 ng/mL | AUC(0-inf) ([1]; male, rat, plasma, po, 3 mg/kg, rat, 3 mg/kg p.o, individual male animals, read-out: AUCinf): 24400 ng·h/mL | Cmax ([1]; male, rat, plasma, po, 3 mg/kg, rat, 3 mg/kg p.o, individual male animals, read-out: Cmax): 4320 ng/mL | Tmax ([1]; male, rat, plasma, po, 3 mg/kg, rat, 3 mg/kg p.o, individual male animals, read-out: Tmax): 2 h | half-life ([1]; male, rat, plasma, po, 3 mg/kg, rat, 3 mg/kg p.o, individual male animals, read-out: T½ (converted)): 3.26 h | AUC(0-inf) ([1]; male, rat, plasma, po, 3 mg/kg, rat, 3 mg/kg p.o, mean, summary without unit (Table 12), read-out: AUCinf (mean)): 21100 ng·h/mL | Cmax ([1]; male, rat, plasma, po, 3 mg/kg, rat, 3 mg/kg p.o, mean, summary without unit (Table 12), read-out: Cmax (mean)): 4080 ng/mL | AUC(0-inf) ([1]; male, rat, plasma, po, 3 mg/kg, rat, 3 mg/kg p.o, mean, read-out: AUCinf, Mean): 21100 ng·h/mL | Cmax ([1]; male, rat, plasma, po, 3 mg/kg, rat, 3 mg/kg p.o, mean, read-out: Cmax, Mean): 4080 ng/mL | Tmax ([1]; male, rat, plasma, po, 3 mg/kg, rat, 3 mg/kg p.o, mean, read-out: Tmax, Mean): 2 h | half-life ([1]; male, rat, plasma, po, 3 mg/kg, rat, 3 mg/kg p.o, mean, read-out: T½, Mean (converted)): 2.8 h | Fold over IC50 at 12 h ([1]; mean blood concentration at 12 h (rat, 3 mg/kg p.o.) divided by whole blood IC50 in ng/ml): 102 | Concentration in Blood ([1]; rat, 3 mg/kg oral, 0.25 h, individual male animals, 3 mg/kg): 1130.7 ng/mL and 1337.2 ng/mL | Concentration in Blood ([1]; rat, 3 mg/kg oral, 0.5 h, individual male animals, 3 mg/kg): 2205.2 ng/mL and 2487.5 ng/mL | Concentration in Blood ([1]; rat, 3 mg/kg oral, 1 h, individual male animals, 3 mg/kg): 3547.8 ng/mL and 3393.7 ng/mL | Concentration in Blood ([1]; rat, 3 mg/kg oral, 2 h, individual male animals, 3 mg/kg): 3685.1 ng/mL and 4221.0 ng/mL | Concentration in Blood ([1]; rat, 3 mg/kg oral, 4 h, individual male animals, 3 mg/kg): 2023.1 ng/mL and 2053.8 ng/mL | Concentration in Blood ([1]; rat, 3 mg/kg oral, 6 h, individual male animals, 3 mg/kg): 995.0 ng/mL and 1098.0 ng/mL | Concentration in Blood ([1]; rat, 3 mg/kg oral, 8 h, individual male animals, 3 mg/kg): 699.5 ng/mL and 678.5 ng/mL | Concentration in Blood ([1]; rat, 3 mg/kg oral, 24 h, individual male animals, 3 mg/kg): 38.2 ng/mL and 0.0 ng/mL and 10.1 ng/mL | AUCinf [1, 4]: 17738 ng·h/mL and 19110 ng·h/mL | Cmax [1, 4]: 3685 ng/mL and 4221 ng/mL | T½ [1, 4]: 2.26 h and 2.62 h | IC50 ([2]; 10 nm PGD2-induced eosinophil shape change, human whole blood, read-out: Whole Blood IC50): 6 nM | IC50 ([2]; Table 12 summary of whole blood eosinophil shape change IC50, read-out: IC50 (μmol)): 6 nM | IC50 ([2]; whole blood eosinophil shape change IC50 converted to ng/mL, read-out: IC50): 2.7 ng/mL
Structure (SMILES): Cc1c(Cc2ccccc2S(=O)(=O)c2ccc(F)cc2)c2cc(F)ccc2n1CC(=O)O [Compound 3, 2-(5-fluoro-3-(2-(4-fluorophenylsulfonyl)benzyl)-2-methyl-1H-indol-1-yl)acetic acid]
Concentration in Blood ([1]; rat, 3 mg/kg oral, 12 h, individual male animals, 3 mg/kg): 465.3 ng/mL and 163.3 ng/mL and 201.1 ng/mL | Potency in inhibition of DK-PGD2-induced blood eosinophilia [3]: 0.01 mg/kg
